The test system of the assay is methane production in rumen fluid. The assay can be described thus: Rumen in vitro (RIV) assay, methane production from rumen fluid incubations. Type of assay: cell-based, cattle. Conditions: Bos taurus, read-out: RIV % methane reduction +/− SD. The method, then:
The compounds of the present invention were initially screened for activity using an in vitro fully automated incubation system for the measurement of total gas production and gas composition (methane and hydrogen). The system used is described in detail in the paper by Muetzel et al. (2014; Animal Feed Science and Technology 196, 1-11). The system in this specification is referred to as the rumen in vitro system or RIV. The RIV system provides a relatively simple tool for determining the rate and production of methane and also whether the rate and production of methane is inhibited or reduced by a particular compound or feed. Rumen in vitro assays use rumen fluid from donor animals (typically either sheep or cattle) which is typically combined with a buffer and then incubated in sealed fermentation vessels at 39° C. for either 24 or 48 h. These assays systems have been well-characterised and used by the scientific community over the last two decades (Rymer et al. 2005). The system that has been used here to characterise the effects of inhibitors on methane production and gas production, and the formation of H2, was described by Muetzel et al. (2014). Rumen in vitro assay systems reflect what can occur in the rumen in vivo, but only short-term, due to their short incubation times (typically not exceeding 48 h) which is limited by its buffering capacity and the fact that it is a closed system. Stock solutions of inhibitors were re-suspended in dimethylformamide (DMF) at concentrations 1000-fold higher than the highest used for the assays. Any further dilutions were also prepared using DMF. The total amount of inhibitor solution added to the rumen fluid-buffer mixture (60 mL) was 60 μl. Incubations used 60 ml of medium containing 12 ml of filtered rumen fluid and 48 ml of buffer in serum bottles for 24-48 h, essentially as described by Muetzel et al. (2014). Two fistulated cattle were used as donor animals for rumen fluid and treatments were incubated in duplicate bottles. Sets of duplicate incubation vials that contained ryegrass (with rumen fluid-buffer mixture), and ryegrass with 30 μM bromoethanesulfonate (BES) were also incubated as negative and positive controls, respectively. One experiment consists of 2 replicates of an inhibitor at any one concentration run at the same time, and a run can contain up to 32 bottle, including positive (30 µM BES) and negative (no inhibitor added) controls. Compound 1, for example, was tested using the 60 mL rumen in vitro assay system at 50 μM, 10 μM, and 2 μM final concentrations and compared to a positive control with 30 µM BES.

The structures appear in SMILES notation.

With `O=C(O)/C=C\C(=O)N1N=C(c2ccc(Cl)cc2)CC1c1ccc2nccnc2c1` (stereo not shown) [Compound 52, (Z)-4-(3-(4-Chlorophenyl)-5-(quinoxalin-6-yl)-4,5-dihydro-1H-pyrazol-1-yl)-4-oxobut-2-enoic acid], the inhibition at 50 µM was found to be 34.1 ± 1.3%.

As for `O=C(O)CCCN1N=C(c2ccc(Cl)cc2)CC1c1ccc2nccnc2c1` (stereo not shown) [Compound 53, 4-(3-(4-Chlorophenyl)-5-(quinoxalin-6-yl)-4,5-dihydro-1H-pyrazol-1-yl)butanoic acid], the inhibition at 10 µM is 19.4 ± 1.9% and the inhibition at 50 µM came out at 82.1 ± 1.2%.

For the compound `CC(C)(C)C(=O)OCOC(=O)CCC(=O)N1N=C(c2ccc(Cl)cc2)CC1c1ccc2nccnc2c1` (stereo not shown) [Compound 54, (Pivaloyloxy)methyl 4-(3-(4-chlorophenyl)-5-(quinoxalin-6-yl)-4,5-dihydro-1H-pyrazol-1-yl)-4-oxobutanoate], the inhibition at 50 µM was 23.8 ± 9.4%.

In the case of `CS(=O)(=O)NC(=O)CCC(=O)N1N=C(c2ccc(Cl)cc2)CC1c1ccc2nccnc2c1` (stereo not shown) [Compound 55, 4-(3-(4-Chlorophenyl)-5-(quinoxalin-6-yl)-4,5-dihydro-1-pyrazol-1-yl)-N-(methylsulfonyl)-4-oxobutanamide], the inhibition at 2 µM is below 5%, the inhibition at 10 µM was found to be 70 ± 4.5% and the inhibition at 50 µM came to 96.1 ± 0.5%.

On to `CS(=O)(=O)NC(=O)CCC(=O)N1N=C(c2ccc(OC(F)(F)F)cc2)CC1c1ccc2nccnc2c1` (stereo not shown) [Compound 56], for which the inhibition at 2 µM was below 5%, the inhibition at 10 µM worked out at 72.4 ± 10.6% and the inhibition at 50 µM turned out to be 98.6%.

As for `CS(=O)(=O)NC(=O)CCC(=O)N1N=C(c2ccc(-c3ccccc3)cc2)CC1c1ccc2nccnc2c1` (stereo not shown) [Compound 57, 4-(3-([1,1′-Biphenyl]-4-yl)-5-(quinoxalin-6-yl)-4,5-dihydro-1H-pyrazol-1-yl)-N-(methylsulfonyl)-4-oxobutanamide], the inhibition at 10 µM is 62.7 ± 4.4% and the inhibition at 50 µM is 89.7 ± 0.5%.

With `CC(C)S(=O)(=O)NC(=O)CCC(=O)N1N=C(c2ccc(Cl)cc2)CC1c1ccc2nccnc2c1` (stereo not shown) [Compound 58], the inhibition at 2 µM amounted to 6 ± 1.6%, the inhibition at 10 µM worked out at 80.4 ± 6.3% and the inhibition at 50 µM was 93.9 ± 4.7%.

Take `CN(C)S(=O)(=O)NC(=O)CCC(=O)N1N=C(c2ccc(Cl)cc2)CC1c1ccc2nccnc2c1` (stereo not shown) [Compound 59, 4-(3-(4-Chlorophenyl)-5-(quinoxalin-6-yl)-4,5-dihydro-1H-pyrazol-1-yl)-N—(N,N-dimethylsulfamoyl)-4-oxobutanamide]: the inhibition at 2 µM was found to be 10.6 ± 2.5%, the inhibition at 10 µM turned out to be 86.7 ± 7% and the inhibition at 50 µM was determined as 94.4 ± 4%.

As for `O=C(O)c1cccc(N2N=C(c3ccc(-c4ccccc4)cc3)CC2c2ccc3nccnc3c2)c1` (stereo not shown) [Compound 61, 3-(3-([1,1′-Biphenyl]-4-yl)-5-(quinoxalin-6-yl)-4,5-dihydro-1H-pyrazol-1-yl)benzoic acid], the inhibition at 2 µM stood at 13.1%, the inhibition at 10 µM was 88.3 ± 0.9% and the inhibition at 50 µM is 95.9 ± 0.6%.

Regarding `CSc1ccc(C2=NN(C(=O)CCC(=O)O)C(c3ccc4nccnc4c3)C2)cc1` (stereo not shown) [Compound 62], the inhibition at 50 µM turned out to be 31.8%.

Turning to `O=C1NC(=O)C(CC(=O)N2N=C(c3ccc(Cl)cc3)CC2c2ccc3nccnc3c2)S1` (stereo not shown) [Compound 63, 5-(2-(3-(4-Chlorophenyl)-5-(quinoxalin-6-yl)-4,5-dihydro-1H-pyrazol-1-yl)-2-oxoethyl)thiazolidine-2,4-dione], the inhibition at 50 µM was found to be 43.6 ± 2.9%.

For the compound `O=C(O)CCC(=O)N1N=C(c2ccc(-c3ccc(OC(F)F)cc3)cc2)CC1c1ccc2nccnc2c1` (stereo not shown) [Compound 65, 4-(3-(4′-(Difluoromethoxy)-[1,1′-biphenyl]-4-yl)-5-(quinoxalin-6-yl)-4,5-dihydro-1H-pyrazol-1-yl)-4-oxobutanoic acid], the inhibition at 2 µM stood at 26.2% and the inhibition at 10 µM came out at 90.2%.

In the case of `O=C(O)CCC(=O)N1N=C(c2ccc(-c3cc(F)cc(F)c3)cc2)CC1c1ccc2nccnc2c1` (stereo not shown) [Compound 66, 4-(3-(3′,5′-Difluoro-[1,1′-biphenyl]-4-yl)-5-(quinoxalin-6-yl)-4,5-dihydro-1H-pyrazol-1-yl)-4-oxobutanoic acid], the inhibition at 2 µM worked out at 17.5% and the inhibition at 10 µM worked out at 85.4%.

As for `CS(=O)(=O)NC(=O)CCC(=O)N1N=C(c2cccc(-c3ccccc3)c2)CC1c1ccc2nccnc2c1` (stereo not shown) [Compound 68, 4-(3-([1,1′-Biphenyl]-3-yl)-5-(quinoxalin-6-yl)-4,5-dihydro-1H-pyrazol-1-yl)-N-(methylsulfonyl)-4-oxobutanamide], the inhibition at 2 µM was 20.5 ± 1.4% and the inhibition at 10 µM was found to be 85.4 ± 0.5%.

For `O=C(CCC(=O)N1N=C(c2ccc(Cl)cc2)CC1c1ccc2nccnc2c1)NS(=O)(=O)c1ccccc1` (stereo not shown) [Compound 70, 4-(3-(4-Chlorophenyl)-5-(quinoxalin-6-yl)-4,5-dihydro-1H-pyrazol-1-yl)-4-oxo-N-(phenylsulfonyl) butanamide], the inhibition at 2 µM was found to be 27.1 ± 13.1% and the inhibition at 10 µM was 88.9 ± 1.5%.

For the compound `CN(C)S(=O)(=O)NC(=O)CCC(=O)N1N=C(c2ccc(-c3ccccc3)cc2)CC1c1ccc2nccnc2c1` (stereo not shown) [Compound 71, 4-(3-([1,1′-Biphenyl]-4-yl)-5-(quinoxalin-6-yl)-4,5-dihydro-1H-pyrazol-1-yl)-N—(N,N-dimethylsulfamoyl)-4-oxobutanamide], the inhibition at 2 µM is below 5% and the inhibition at 10 µM amounted to 70.7%.

Take `CS(=O)(=O)NC(=O)c1cccc(N2N=C(c3ccc(Cl)cc3)CC2c2ccc3nccnc3c2)c1` (stereo not shown) [Compound 72, 3-(3-(4-Chlorophenyl)-5-(quinoxalin-6-yl)-4,5-dihydro-1H-pyrazol-1-yl)-N-(methylsulfonyl)benzamide]: the inhibition at 2 µM came to 14.3 ± 4.7% and the inhibition at 10 µM turned out to be 82.5 ± 2.5%.

Consider `O=C(O)CCC(=O)N1N=C2c3ccc(Cl)cc3CCC2C1c1ccc2nccnc2c1` (stereo not shown) [Compound 73, 4-(7-Chloro-3-(quinoxalin-6-yl)-3,3a,4,5-tetrahydro-2H-benzo[g]indazol-2-yl)-4-oxobutanoic acid], for which the inhibition at 10 µM is 18.8 ± 1.6% and the inhibition at 50 µM came out at 78 ± 1.9%.

In the case of `O=C(O)CCC(=O)N1N=C2c3cc(-c4ccccc4)ccc3CCC2C1c1ccc2nccnc2c1` (stereo not shown) [Compound 74, 4-Oxo-4-(8-phenyl-3-(quinoxalin-6-yl)-3,3a,4,5-tetrahydro-2H-benzo[g]indazol-2-yl)butanoic acid], the inhibition at 2 µM was 9 ± 1.9%, the inhibition at 10 µM came out at 87.8 ± 0.7% and the inhibition at 50 µM was 97.2 ± 0.5%.

Consider `O=C(O)CCC(=O)N1N=C2c3ccc(-c4ccccc4)cc3CCC2C1c1ccc2nccnc2c1` (stereo not shown) [Compound 75, 4-Oxo-4-(7-phenyl-3-(quinoxalin-6-yl)-3,3a,4,5-tetrahydro-2H-benzo[g]indazol-2-yl)butanoic acid], for which the inhibition at 2 µM stood at 15.8 ± 4.5%, the inhibition at 10 µM turned out to be 87.5 ± 0.6% and the inhibition at 50 µM turned out to be 92.8 ± 0.5%.

Turning to `O=C(O)CCC(=O)N1N=C2c3ccc(-c4ccc(OC(F)(F)F)cc4)cc3CCC2C1c1ccc2nccnc2c1` (stereo not shown) [Compound 76, 4-Oxo-4-(3-(quinoxalin-6-yl)-7-(4-(trifluoromethoxy)phenyl)-3,3a,4,5-tetrahydro-2H-benzo[g]indazol-2-yl)butanoic acid], the inhibition at 2 µM was determined as 21.1 ± 3.2%, the inhibition at 10 µM is 77.3 ± 1.3% and the inhibition at 50 µM came out at 96.5%.

For the origin of these results see US20260053171A1, “METHANOGEN INHIBITORS” (AGRIZERONZ LIMITED PARTNERSHIP, priority 2022, published 2026).
